Read-outs that look alike come from different tables or passages of the source.

Usually pKa stands for the pH at which an ionisable group is half protonated.

Data set [1] can be described thus: pK assessment from absorbance/emission versus pH in phosphate buffers. The note with it: for pKa: phosphate buffers at different pH, inflection point of absorbance vs pH, phosphate buffers, read-out: pKa (by abs). Format: physicochemical. The protocol: From the analysis of the variation of the absorbance and emission with respect to the variation of pH, it was possible to calculate the pKa of the dyes of the invention as the inflection point of the interpolated curve.
All the pH buffers used for the experiment were phosphate based buffers and each pH point has been accurately checked with pH-meter. First the cyanine powder was dissolved in water at ca. 1 mg/mL concentration and then 10 μL of this mother solution were added to 1 ml of phosphate buffers at different pH, previously prepared mixing ortophosphoric acid and sodium hydroxide in the right amount to reach the desired pH. The diluted cyanine buffered solutions were then sampled and transferred into a 96 wells plate (clear for the absorbance measurements and dark for the emission measurements) for the analyses. By plotting for each solution the value of the absorbance at the maximum of the active form, for instance 780 nm for Compound 5, vs. the pH of the solution, a polynomial cubic curve was obtained, whose flex corresponds to the pKa value of the cyanine.

Data set [2] is described as follows: Optical characterization (absorbance, excitation and emission spectra, microplate reader). Format: physicochemical. The note with it: phosphate buffer; for Abs. Max. / Em. Max.: maximum of the active form. The protocol: All commercially available reagents used in the synthesis were obtained from Sigma Aldrich and TCI and they were used without further purification. c(RGDfK) was purchased from Apex Bio or Bachem. All the reactions were followed by HPLC (Agilent mod. 1100/1200) and HPLC-MS (Agilent mod. 1260, Quadrupole LC/MSD Mod. 6120) equipped with an absorption detector set at different wavelengths (Column: YMC-Triart Phenyl, 250×4.6 mm/S-5 μm/12 nm). Purifications were performed by flash chromatography on an automated purification system (CombiFlash® Rf+), using pre-packed silica C18 cartridges (Biotage® or Phenomenex) or by preparative HPLC on preparative YMC-Triart Phenyl column. Absorbance, excitation and emission values were assessed in a well plate reader to speed-up the measurements (SPARK).
Optical characterization was performed for each compound with Spark® multimode microplate reader, registering with specific 96-wells plate the absorbance, excitation and emission spectra of the fluorophore buffered in phosphate buffer at several pH, ranging from 3 to 8.
In particular, the absorbance, excitation and emission maxima of representative compounds of formula (I) and conjugates of formula (II) are shown in Table III.

Data set [3] can be described thus: Residual fluorescence at different pH relative to pH 3. The note with it: unit assumed; for Em. at pH 5/Em at pH 3: fluorescence at pH 5 relative to maximum at pH 3; for Em. at pH 6/Em at pH 3: fluorescence at pH 6 relative to maximum at pH 3; for Em. at pH 7.5/Em at pH 3: fluorescence at pH 7.5 relative to maximum at pH 3. It counts as physicochemical. The protocol: The ratio of the fluorescence at different pH (5, 6 and 7.5) with respect to the maximum fluorescence collected at pH 3 (highly acidic) was calculated for several representative compounds of the invention and the results are reported in the following Table V. The results were also compared to the values calculated for the non-alkylated Reference Compound A.

A short description of data set [4]: pKa of prior-art pH sensitive cyanine dyes (literature). Format: physicochemical. The note with it: worked out from literature pKa.
For data set [5] the following is noted: literature value; cited from earlier work.

Take `CC(CC[N+]1=C(/C=C/C2=C(Cl)C(=C/C=C3/Nc4ccc(S(=O)(=O)O)cc4C3(C)C)/CCC2)C(C)(C)c2cc(C(=O)O)ccc21)S(=O)(=O)[O-]` (centres unmarked) [Compound 1]: the pKa in data set [1] was 6. For the same compound, in data set [2], the “Exc. Max.” value was 783 nm, the “Abs. Max.” value is reported as 784 nm and the “Em. Max.” value is recorded as 804 nm. In data set [3], this compound showed an Em. at pH 5/Em at pH 3 of 104%, an Em. at pH 6/Em at pH 3 of 55% and an Em. at pH 7.5/Em at pH 3 of 9%.

As for `CC1(C)C(/C=C/C2=C(Cl)C(=C/C=C3/Nc4ccc(S(=O)(=O)O)cc4C3(C)C)/CCC2)=[N+](CCCCCC(=O)NCCCCC2NC(=O)[C@@H](Cc3ccccc3)NC(=O)[C@H](CC(=O)O)NC(=O)CNC(=O)[C@H](CCCNC(=N)N)NC2=O)c2ccc(C(=O)NCC(O)C(O)C(O)C(O)CO)cc21` (some centres unmarked) [Compound 11], the pKa in data set [1] is 6.3.

For the compound `CC1(C)C(/C=C/C2=C(Cl)C(=C/C=C3/Nc4ccc(S(=O)(=O)O)cc4C3(C)C)/CCC2)=[N+](CCCCCC(=O)NCCCCC2NC(=O)[C@@H](Cc3ccccc3)NC(=O)[C@H](CC(=O)O)NC(=O)CNC(=O)[C@H](CCCNC(=N)N)NC2=O)c2ccc(S(=O)(=O)[O-])cc21` (some centres unmarked) [Compound 10], the pKa in data set [1] was 5.8.

Take `CC1(C)C(/C=C/C2=C(Cl)C(=C/C=C3/Nc4ccc(S(=O)(=O)[O-])cc4C3(C)C)/CCC2)=[N+](CCCCCC(=O)O)c2ccc(C(=O)NCC(O)C(O)C(O)C(O)CO)cc21` (centres unmarked) [Compound 6]: in data set [1], the pKa turned out to be 6.

Turning to `CC1(C)C(/C=C/C2=C(Cl)C(=C/C=C3/Nc4ccc(S(=O)(=O)O)cc4C3(C)C)/CCC2)=Nc2ccc(S(=O)(=O)O)cc21` [Reference Compound A, reference compound], in data set [1], the pKa stood at 4.6. Moreover, the “pH at which 95% protonation is achieved” value in data set [4] was found to be 3.7. In addition, in data set [5], the pKa is given as 4.7. Besides, in data set [3], the Em. at pH 5/Em at pH 3 was 40%, the Em. at pH 6/Em at pH 3 was found to be 10% and the Em. at pH 7.5/Em at pH 3 was 1%.

`CC1(C)C(/C=C/C=C/C=C2/Nc3ccc(S(=O)(=O)O)cc3C2(C)CCCCCC(=O)O)=[N+](CCCCS(=O)(=O)O)c2ccc(S(=O)(=O)O)cc21` (centres unmarked) [CypHer5E]: in data set [5], the pKa is ~7.3.

For `CC1(C)C(/C=C/C2=C(c3ccc(C(=O)O)cc3)C(=C/C=C3/Nc4ccc(S(=O)(=O)O)cc4C3(C)C)/CCC2)=Nc2ccc(S(=O)(=O)O)cc21` [B], the “pH at which 95% protonation is achieved” value in data set [4] is given as 4.2. For the same compound, the pKa in data set [5] is listed as 5.2.

`CC(CC[N+]1=C(/C=C/C2=C(Cl)C(=C/C=C3/Nc4ccc(S(=O)(=O)O)cc4C3(C)C)/CCC2)C(C)(C)c2cc(C(=O)NCC(O)C(O)C(O)C(O)CO)ccc21)S(=O)(=O)[O-]` (centres unmarked) [Compound 3]: in data set [2], the “Exc. Max.” value was 780 nm, the “Abs. Max.” value is recorded as 782 nm and the “Em. Max.” value was 807 nm.

On to `CC[N+]1=C(/C=C/C=C/C=C2/Nc3ccc(CC(=O)O)cc3C2(C)C)C(C)(C)c2cc(S(=O)(=O)[O-])ccc21` [pentamethine cyanine dye], for which the pKa in data set [5] was 7.5.

`CC1(C)C(/C=C/C2=C(Cl)C(=C/C=C3/Nc4ccc(C(=O)NCC(O)C(O)C(O)C(O)CO)cc4C3(C)C)/CCC2)=[N+](CCCCCC(=O)NCCCCC2NC(=O)[C@@H](Cc3ccccc3)NC(=O)[C@H](CC(=O)O)NC(=O)CNC(=O)[C@H](CCCNC(=N)N)NC2=O)c2ccc(C(=O)NCC(O)C(O)C(O)C(O)CO)cc21` (some centres unmarked) [Compound 12]: in data set [2], the “Exc. Max.” value came to 790 nm, the “Abs. Max.” value worked out at 793 nm and the “Em. Max.” value was 814 nm.

Consider `CC1(C)C(/C=C/C(Cl)=C/C=C2/N(CCCCCC(=O)O)c3ccc4c(S(=O)(=O)O)cc(S(=O)(=O)O)cc4c3C2(C)C)=Nc2ccc3c(S(=O)(=O)O)cc(S(=O)(=O)O)cc3c21` [Compound 9], for which, in data set [1], the pKa was found to be 6.7.

Consider `CC1(C)C(/C=C/C2=C(Cl)C(=C/C=C3/Nc4ccc(S(=O)(=O)O)cc4C3(C)C)/CCC2)=[N+](CCCCCC(=O)O)c2ccc(S(=O)(=O)[O-])cc21` [Compound 5], for which the “pKa (from emission vs pH)” value in data set [1] (emission at 804 nm vs pH, second source of data) is reported as “same value of pKa”. Also, the pKa in data set [1] was 5.9.

Take `CC1(C)C(/C=C/C2=C(Cl)C(=C/C=C3/N(CCCCCC(=O)O)c4ccc(C(=O)NCC(O)C(O)C(O)C(O)CO)cc4C3(C)C)/CCC2)=Nc2ccc(C(=O)NCC(O)C(O)C(O)C(O)CO)cc21` (centres unmarked) [Compound 7]: the pKa in data set [1] worked out at 6.1.

For `CC1(C)C(/C=C/C2=C(c3ccc(C(=O)NCCS(=O)(=O)O)cc3)C(=C/C=C3/Nc4ccc(S(=O)(=O)O)cc4C3(C)C)/CCC2)=[N+](CCCCCC(=O)O)c2ccc(S(=O)(=O)[O-])cc21` [Compound 4], in data set [1], the pKa came out at 6.4.

Take `CC1(C)C(/C=C/C=C/C=C/C=C2/Nc3ccc(S(=O)(=O)O)cc3C2(C)C)=[N+](CCCCCC(=O)O)c2ccc(S(=O)(=O)O)cc21` [Compound 8]: the pKa in data set [1] is 6. Besides, in data set [2], the “Exc. Max.” value worked out at 740 nm, the “Abs. Max.” value is 742 nm and the “Em. Max.” value came out at 777 nm. In addition, in data set [3], the Em. at pH 5/Em at pH 3 amounted to 96%, the Em. at pH 6/Em at pH 3 was 66% and the Em. at pH 7.5/Em at pH 3 amounted to 10%.

Values taken from patent US20240131199A1, “PH RESPONSIVE CYANINE DYES AND CONJUGATES THEREOF” (BRACCO IMAGING S.P.A., priority 2020, published 2024).
